Data set [1] deals with rCedV-Luc. Nature of the data set: microbe, parasite or virus in culture. In kind it is cell-based. The note with it: read-out: IC50 (95% CI).
The subject of data set [2] is rCedV-Luc. In words: microbe, parasite or virus in culture. It counts as cell-based. The note with it: Cedar virus, Vero C1008, 48 h, read-out: IC50 (95% CI).
Data set [3] has as its system NiV-B. In words: microbe, parasite or virus in culture. In kind it is cell-based, Nipah virus. The note with it: for IC50: read-out: IC50 (95% CI).
For data set [4], the system named is HeV. In words: microbe, parasite or virus in culture. In kind it is cell-based, Hendra virus. The note with it: for IC50: read-out: IC50 (95% CI).
Data set [5] has as its system CedV F and G. It counts as cell-based.
Data set [6] in a line: in vitro. The note with it: human.
For data set [7], the system named is HEK 293T cells.
For data set [8], the system named is Vero E6 cells.
The subject of data set [9] is Vero 76 cell line. The note with it: African green monkey.

Read-outs that look alike come from different tables or passages of the source.

The record followed here is PMC8631057 (Antiviral research, 2021).

Usually IC50 stands for the midpoint of a concentration-inhibition curve. Regarding `CCOc1ccc(C2c3[nH]c4ccccc4c3CCN2C(=O)C2CCC2)cc1` (stereo not drawn) [Compound C1, cyclobutyl(1-(4-ethoxyphenyl)-1,3,4,9-tetrahydro-2H-pyrido[3,4-b]indol-2-yl)methanone], the IC50 in [1] (Cedar virus, HEK-293T, 48 h) stood at 3.06 µM; in data set [2] it was 7.82 µM; in data set [3] (Henipavirus nipahense, Vero 76, 48 h) it was 1.83 µM; in data set [4] (Henipavirus hendraense, Vero 76, 48 h), 9.87 µM. In addition, the “Selectivity index (SI)” value in data set [3] was > 55; in data set [4] it was > 10. The “Inhibition of cell-cell membrane fusion activity” value in [5] is reported as “did not inhibit cell-cell membrane fusion activity”. In addition, in data set [6], the CC50 is > 100 µM.
Regarding “cyclobutyl(1-(4-ethoxyphenyl)-1,3,4,9-tetrahydro-2H-pyrido[3,4-b]indol-2-yl)methanone [Compound F1]”, the IC50 in data set [3] was found to be 4.15 µM; in [4], 19.6 µM. Also, in data set [5], the “Inhibition of cell-cell membrane fusion activity” value is on record as “did not inhibit cell-cell membrane fusion activity”. Further, in [7], the “Cytotoxicity (in words)” value was “mild toxicity”. Moreover, the CC50 in data set [7] (human) was 85.8 µM; in data set [8] (African green monkey), > 100 µM; in [9] it was > 100 µM.
“(1-(6-(cyclopropylamino)pyrimidin-4-yl)piperidin-4-yl)-N-(2-(thiophen-2-yl)ethyl)propenamide [Compound A3]”: the IC50 in data set [1] was ~0.3 µM. Also, the CC50 in data set [7] and in data set [8] was > 100 µM each time.
Consider `COc1ccc(Nc2nc(-c3nnn(-c4ccc(Br)cc4F)c3C)ns2)cc1` [Z, 3-(1-(4-bromo-2-fluorophenyl)-5-methyl-1H-1,2,3-triazol-4-yl)-N-(4-methoxyphenyl)-1,2,4-thiadiazol-5-amine], for which the IC50 in data set [1] (Cedar virus, HEK-293T, 48 h) came out at 0.13 µM; in data set [2], 0.41 µM. The CC50 in [6] is > 100 µM.
